# Results taken from patent publication US20060183721A1, “2-Methylene-19-nor-(20S-24epi)-1alpha,25-dihydroxyvitamin D2” (Wisconsin Alumni Research Foundation, priority 2005, published 2006).
# Legend:
# [1] = target: T1, full-length recombinant rat vitamin D receptor (Rattus norvegicus, UniProt P13053); assay: Vitamin D receptor competitive binding with [3H]-1,25-(OH)2-D3; conditions: compared with native hormone 1,25(OH)2D3; FIG. 1
# T1 construct: Full-length recombinant rat receptor was expressed in E. coli BL21(DE3) Codon Plus RIL cells; histidine tag (C); made in house; host or cells: E. coli BL21(DE3) Codon Plus RIL
# T1 sequence (P13053 1-423): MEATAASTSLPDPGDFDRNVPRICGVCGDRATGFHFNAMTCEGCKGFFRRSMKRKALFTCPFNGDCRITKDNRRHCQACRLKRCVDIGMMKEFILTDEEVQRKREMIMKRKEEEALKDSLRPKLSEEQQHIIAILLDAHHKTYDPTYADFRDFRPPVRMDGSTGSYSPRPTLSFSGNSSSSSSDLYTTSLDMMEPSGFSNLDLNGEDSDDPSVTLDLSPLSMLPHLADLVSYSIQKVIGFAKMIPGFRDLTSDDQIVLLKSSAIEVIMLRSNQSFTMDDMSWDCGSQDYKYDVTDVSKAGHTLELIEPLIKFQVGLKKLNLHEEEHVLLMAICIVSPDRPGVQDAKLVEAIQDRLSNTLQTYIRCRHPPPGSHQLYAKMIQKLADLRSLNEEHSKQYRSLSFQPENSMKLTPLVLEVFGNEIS
# Source text: FIG. 1 is a graph comparing the relative activity of (20S/24R) 2-MD2 and 1,25(OH)2D3 to compete for binding with [^3H]-1,25-(OH)2-D3 to the full-length recombinant rat vitamin D receptor.
# Full-length recombinant rat receptor was expressed in E. coli BL21(DE3) Codon Plus RIL cells and purified to homogeneity using two different column chromatography systems. The first system was a nickel affinity resin that utilizes the C-terminal histidine tag on this protein. The protein that was eluted from this resin was further purified using ion exchange chromatography (S-Sepharose Fast Flow). Aliquots of the purified protein were quick frozen in liquid nitrogen and stored at −80° C. until use. For use in binding assays, the protein was diluted in TEDK50 (50 mM Tris, 1.5 mM EDTA, pH 7.4, 5 mM DTT, 150 mM KCl) with 0.1% Chaps detergent. […]
# Unlabeled ligands were dissolved in ethanol and the concentrations determined using UV spectrophotometry (1,25(OH)2D3: molar extinction coefficient=18,200 and λmax=265 nm; Analogs: molar extinction coefficient=42,000 and λmax=252 nm). […]
# Radiolabeled and unlabeled ligands were added to 100 mcl of the diluted protein at a final ethanol concentration of ≦10%, mixed and incubated overnight on ice to reach binding equilibrium. […] Total binding was determined from the tubes containing only radiolabeled ligand.
# [2] = test system: Human promyelocytic leukemia (HL60) cells; assay: HL-60 cell differentiation (nitro blue tetrazolium reduction); format: cell-based; conditions: compared with 1,25-(OH)2D3; FIG. 2
# Procedure: FIG. 2 is a graph comparing the percent HL-60 cell differentiation as a function of the concentration of (20S/24R) 2-MD2 with that of 1,25(OH)2D3.
# The study drugs were dissolved in ethanol and the concentrations determined using UV spectrophotometry. Serial dilutions were prepared so that a range of drug concentrations could be tested without changing the final concentration of ethanol (≦0.2%) present in the cell cultures.
# Human promyelocytic leukemia (HL60) cells were grown in RPMI-1640 medium containing 10% fetal bovine serum. The cells were incubated at 37° C. in the presence of 5% CO2.
# HL60 cells were plated at 1.2×10^5 cells/ml. Eighteen hours after plating, cells in duplicate were treated with drug. Four days later, the cells were harvested and a nitro blue tetrazolium reduction assay was performed (Collins et al., 1979; J. Exp. Med. 149:969-974). The percentage of differentiated cells was determined by counting a total of 200 cells and recording the number that contained intracellular black-blue formazan deposits. Verification of differentiation to monocytic cells was determined by measuring phagocytic activity (data not shown).
# [3] = test system: 24-hydroxylase (24Ohase) gene promoter in ROS 17/2.8 (bone) cells; assay: In vitro transcription assay (24-hydroxylase promoter luciferase reporter); format: cell-based; conditions: compared with 1,25-(OH)2D3; ROS 17/2.8 cells, 24Ohase-luciferase; FIG. 3
# Procedure: FIG. 3 is a graph comparing the in vitro transcription activity of (20S/24R) 2-MD2 with that of 1,25(OH)2D3.
# Transcription activity was measured in ROS 17/2.8 (bone) cells that were stably transfected with a 24-hydroxylase (24Ohase) gene promoter upstream of a luciferase reporter gene (Arbour et al., 1998). Cells were given a range of doses. Sixteen hours after dosing the cells were harvested and luciferase activities were measured using a luminometer. RLU=relative luciferase units.
# [4] = Bone calcium mobilization (serum calcium); format: in vivo, Sprague-Dawley rats; conditions: compared with 1,25-(OH)2D3, rats, four consecutive ip doses, FIG. 4
# Source text: FIG. 4 is a bar graph comparing the bone calcium mobilization activity of (20S/24R) 2-MD2 with that of 1,25(OH)2D3.
# (§1) Male, weanling Sprague-Dawley rats were placed on Diet 11 (Suda et al. J. Nutr. 100:1049, 1970) (0.47% Ca) diet+vitamins AEK for one week followed by Diet 11 (0.02% Ca)+AEK for 3 weeks. The rats were then switched to a diet containing 0.47% Ca for one week followed by two weeks on a diet containing 0.02% Ca. Dose administration began during the last week on 0.02% calcium diet. Four consecutive ip doses were given approximately 24 hours apart. Twenty-four hours after the last dose, blood was collected from the severed neck and the concentration of serum calcium determined as a measure of bone calcium mobilization. The first 10 cm of the intestine was also collected for intestinal calcium transport analysis using the everted gut sac method.
# [5] = Intestinal calcium transport (everted gut sac method); format: in vivo, Sprague-Dawley rats; conditions: compared with 1,25-(OH)2D3, rats, four consecutive ip doses, FIG. 5
# Source text: FIG. 5 is a bar graph comparing the intestinal calcium transport activity of (20S/24R) 2-MD2 with that of 1,25(OH)2D3.
# as §1
compound,measurement,setting,value
"C=C1[C@H](O)CC(=C/C=C2\CCC[C@]3(C)C([C@@H](C)/C=C/[C@@H](C)C(C)(C)O)CC[C@@H]23)C[C@H]1O (stereo in doubt) [2-methylene-19-nor-(20S-24epi)-1α,25-dihydroxyvitamin D2]",binding to the vitamin D receptor,[1],almost equal to the native hormone
same,inducing differentiation of HL-60 cells,[2],"more activity than 1,25-(OH)2D3"
same,causing transcription,[3],"more effective than 1,25-(OH)2D3"
same,bone calcium mobilizing activity,[4],"more bone calcium mobilizing activity than 1,25-(OH)2D3"
same,intestinal calcium transport activity,[5],"approximately equal to 1,25-(OH)2D3"
